The results in this text go back to ChEMBL document CHEMBL5728717, “Amino pyrimidine compound for inhibiting protein tyrosine kinase activity” (2021).

The structures appear in SMILES notation.

This assay has as its target Epidermal growth factor receptor (Homo sapiens, UniProt P00533). Kind of assay: Kinase Inhibition Assay: Reagents and Materials:WT EGFR (Carna, Cat. No. 08-115), EGFR [L858R] (Carna, Cat. No. 08-502), EGFR [L858R/T790M] (Carna, Cat. No. 08-510), ATP (Sigma, Cat. No. A7699-1G), DMSO (Sigma, Cat. No. D2650), 96-well plate (Corning, Cat. No. 3365), 384-well plate (Greiner, Cat. No. 784076), HTRF Kinase TK Kit (Cisbio, Cat. No. 62TK0PEJ), Erlotinib (Selleckchem, Cat. No. S7787) ….

Sequence of Epidermal growth factor receptor (P00533 25-1210 limits assumed, stated change not applied): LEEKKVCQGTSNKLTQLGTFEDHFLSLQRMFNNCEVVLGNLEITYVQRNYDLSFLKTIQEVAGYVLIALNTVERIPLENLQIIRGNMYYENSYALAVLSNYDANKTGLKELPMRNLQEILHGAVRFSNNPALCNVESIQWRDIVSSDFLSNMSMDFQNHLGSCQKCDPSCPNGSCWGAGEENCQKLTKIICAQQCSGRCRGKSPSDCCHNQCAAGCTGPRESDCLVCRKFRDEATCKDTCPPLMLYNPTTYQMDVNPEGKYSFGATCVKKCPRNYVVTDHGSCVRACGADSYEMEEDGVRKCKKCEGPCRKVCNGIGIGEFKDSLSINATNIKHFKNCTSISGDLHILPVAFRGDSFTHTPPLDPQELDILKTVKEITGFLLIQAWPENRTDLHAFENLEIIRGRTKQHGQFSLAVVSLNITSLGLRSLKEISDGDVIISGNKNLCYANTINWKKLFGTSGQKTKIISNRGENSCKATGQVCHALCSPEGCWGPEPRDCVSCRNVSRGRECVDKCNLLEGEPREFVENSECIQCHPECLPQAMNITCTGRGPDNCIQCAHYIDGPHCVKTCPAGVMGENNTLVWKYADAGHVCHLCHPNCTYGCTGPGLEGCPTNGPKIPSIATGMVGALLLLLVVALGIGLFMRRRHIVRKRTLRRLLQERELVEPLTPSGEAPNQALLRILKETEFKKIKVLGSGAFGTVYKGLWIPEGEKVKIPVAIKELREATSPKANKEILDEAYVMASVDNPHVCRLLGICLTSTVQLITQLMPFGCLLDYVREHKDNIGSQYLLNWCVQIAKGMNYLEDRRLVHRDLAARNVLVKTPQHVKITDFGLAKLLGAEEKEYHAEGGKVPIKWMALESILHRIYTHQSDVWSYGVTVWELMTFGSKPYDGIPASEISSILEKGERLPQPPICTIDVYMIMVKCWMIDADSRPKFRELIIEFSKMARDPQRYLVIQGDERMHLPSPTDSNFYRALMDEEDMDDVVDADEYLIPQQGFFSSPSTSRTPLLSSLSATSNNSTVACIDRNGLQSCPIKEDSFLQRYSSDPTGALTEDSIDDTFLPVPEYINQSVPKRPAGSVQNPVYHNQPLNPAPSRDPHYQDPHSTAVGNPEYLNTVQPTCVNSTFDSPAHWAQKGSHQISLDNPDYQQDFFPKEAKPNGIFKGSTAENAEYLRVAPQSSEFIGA
Description: Then, it was diluted in DMSO with a 3-fold series gradient dilution for 10 times. […] The corresponding substrate and ATP were added and reacted at room temperature for 20 minutes (in which a negative and a positive control were set: the negative control is blank and the positive control is erlotinib). […] The inhibitions of the enzyme activity by the compounds at different concentrations were then fitted using Graphpad 5.0 software according to the four-parameter equation, and the IC50 values were calculated.

With `C=CC(=O)Nc1cc(Nc2nccc(-c3cc(F)c4nc(C)n(C(C)C)c4c3)n2)c(OC)cc1N1CCC(OC)CC1`, the IC50 was above 100 nM.
